Tests used:
[1] = test system: DOCA-challenged cardiac fibrosis in mice; type: in vivo
Description: In a second model of non-ischemic heart disease with hypertension, mice were subjected to uni-nephrectomy and challenged with deoxycorticosterone acetate (DOCA) and saline drinking water to stimulate cardiac hypertrophy and left ventricular fibrosis. Mice were administered DOCA using subcutaneously implanted pellets (50 mg). A separate group of mice were subjected to surgery via creation of subcutaneous pocket (surgical “sham” group); these mice served as control for pellet implantation surgery. Mice were treated with Compound 1 (1 mg/kg, QD) or dosing solution (QD, referred to as vehicle) 24 hours after surgery. Treatment with Compound 1 was given to mice for 3 weeks. At the end of treatment phase, hearts were removed from animals and evaluated for collagen levels/fibrosis by cross-sectional histology of the hearts.
Myocardial fibrosis was evaluated in the mouse with continuous DOCA challenge administered by subcutaneous release pellet. The model increases systemic blood pressure and tissue inflammation in target tissues such as the myocardium via agonism of the mineralocorticoid receptor by DOCA. It also involves surgical uni-nephrectomy and supplementation with saline in the drinking water to further drive disease pathology. This is a model of non-ischemic heart disease.
The effect of Compound 1 on cardiac fibrosis development in the DOCA-salt mouse model was evaluated histologically. […]

[2] = test system: HL-60 cell line; assay: HL-60 cell migration assay, antagonist mode (SAA-stimulated chemotaxis); type: cell-based; settings: Homo sapiens; HL-60 cells; read-out: IC50, antagonism of chemotaxis stimulated by SAA
Description: The HL-60 cell line (ATCC, CCL-240, lot 60398411) was maintained in IMDM (Life Tech, cat 12440-053) medium supplemented with 20% fetal bovine serum, 50 U/ml penicillin, and 50 μg/ml streptomycin at 37° with 5% CO2. Cells were differentiated into the granulocyte lineage with DMSO; 2.5×10^5 cells/ml were incubated with 1.25% DMSO for 5 days.
After 5 day differentiation, the cells were resuspended in phenol free RPMI (Invitrogen, cat 11835) with 0.2% fatty acid free BSA at a concentration of […]. The dHL-60 cells (10^5 in 100 μl) were pre-incubated for 15 minutes with varying concentrations of the […] at 37° with 5% CO2. Then 0.8 μM of the recombinant serum amyloid A1 peptide (rSAA1, PeproTech, Cat #300-53) was added to the bottom chamber of each HTS transwell-96 well plate (Corning #3387). Migration was induced by placing […] and the dHL60 cells mixture in the top chamber of the transwell plate. Cells were allowed to migrate for 120 min across the 5 micron filters at 37° C. with 5% CO2. Following migration, neutrophils or dHL-60 cells remaining in the transwell lower chamber (migrated fraction) were quantitated using the cell-titer-glo luminescence cell viability assay (Promega, G7571). […]

[3] = test system: angiotensin II-induced cardiac fibrosis in mice; assay: Angiotensin II-induced cardiac fibrosis mouse model; type: in vivo; settings: 3 mg/kg QD for 3 weeks, P<0.001
Description: To assess myocardial fibrosis in the setting of non-ischemic heart disease with hypertension, mice were challenged with angiotensin II to stimulate cardiac hypertrophy and left ventricular fibrosis. Mice were administered angiotensin II using subcutaneously implanted osmotic mini-pumps (˜2 mg/kg/day). A separate group of mice were implanted with subcutaneous pumps containing saline (surgical “sham” group); these mice served as control for pump implantation surgery. Mice were treated with Compound 1 (3 mg/kg, QD) or dosing solution without compound (QD, referred to as vehicle) starting 7 days following pump implantation. In this model, cardiac fibrosis development reaches its peak and without treatment, will remain fibrotic at this high level until the angII is depleted (˜4 weeks post implantation). Interventional treatment with Compound 1 to regress cardiac fibrosis was given to mice for 3 weeks. At the end of treatment phase, hearts were removed from animals and evaluated for collagen levels/fibrosis by cross-sectional histology of the hearts.
Myocardial fibrosis was evaluated in the mouse with continuous angiotensin II challenge administered by subcutaneous osmotic mini-pump. This is a model of non-ischemic heart disease.
The effect of Compound 1 on regression of established cardiac fibrosis was evaluated in the angiotensin II-induced cardiac fibrosis mouse model. […]

[4] = test system: myocardial infarction in mice; assay: Mouse permanent coronary artery occlusion, early infarct composition 3 days post MI; type: in vivo; settings: 3 mg/kg PO QD
Description: In order to understand early changes in the infarct extracellular matrix, collagen remodeling enzymes and their endogenous inhibitors, the effects of 3 mg/kg Compound 1 treatment on the myocardial infarct composition in mice were evaluated 3 days post myocardial infarction. Myocardial infarction was created by permanently ligating the left anterior descending artery with a surgical suture. Treatment (QD, PO; suspension vehicle or Compound 1 at 3 mg/kg) was initiated 24 hours after MI and were continued to 3 days post MI. On day 3, mice received a final dose of treatment and the hearts were removed 2 hours post treatment (i.e., 74 hours after MI) for histological analysis.

SMILES: COc1cc(F)c([C@@H]2CNC(=O)[C@H]2NC(=O)Nc2ccccc2)c(F)c1 [Compound 1, 1-((3S,4R)-4-(2,6-difluoro-4-methoxyphenyl)-2-oxopyrrolidin-3-yl)-3-phenylurea]
- reduction of left ventricular fibrosis vs. vehicle treatment group ([1]; 1 mg/kg QD for 3 weeks, started 24 h after surgery, P<0.01): 50%
- tolerability during in-life phase ([1]; mouse, in vivo, 1 mg/kg): well tolerated
- IC50 [2]: 57 nM
- reduction of left ventricular fibrosis vs. vehicle treatment group ([3]; started 7 days after pump implantation): 90%
- reduction of fibrosis relative to 7-day baseline group [3]: 89%
- MMP-2 in infarcted myocardium vs. vehicle [4]: trend towards less MMP-2
- TIMP-4 in infarcted tissue vs. vehicle [4]: No differences
- average infarct area vs. vehicle [4]: similar
- collagen content within the infarct, increase vs. vehicle ([4]; P<0.05): 1.7 fold

Reference: patent US20200069644A1, “NOVEL USE OF A FORMYL PEPTIDE RECEPTOR 2/ LIPOXIN A4 RECEPTOR (FPR2/ALX) AGONIST FOR TREATMENT OF HEART FAILURE” (BRISTOL- MYERS SQUIBB COMPANY, priority 2017, published 2020)
